Source: patent US4557754A, “Bis-(N,N-dimethyl-N-carbodecyloxymethyl-N-ethylene-ammonium)-sulphide dichloride and use thereof” (priority 1980, dated 1985)

Experiments:
[1] = test system: lettuce; assay: Effect on development of sprouts, agar medium in Petri dishes; type: in vivo; design: Germination capacity, lettuce: unit not given here; conditions: for Plant parts length, lettuce root / Plant parts length, lettuce stalk: 7 days
Protocol: (§1) The effect of the preparation was studied for 7 days under laboratory conditions on lettuce and oats plants.
(§2) The standards used in the tests were chlorocholine chloride whose structure is close to the studied chemical compound and heteroauxin phytohormone. Experiments on lettuce and oats growing in the presence of the above substances at a concentration of from 0.1 to 0.00001 wt.% were performed in Petri dishes with the use of agar medium as a substrate.
(§3) The seeds were placed into Petri dishes on solidified agar containing the test substance in the concentration indicated. The seeds germinated in a thermostat for 3 days at a temperature of from 22° to 24° C. Petri dishes with the sprouts were then placed for further growth into an exhausting hood with illumination for 4 days, whereafter the length of the roots, stalks and leaves of the sprouts was measured.

[2] = test system: Rats; conditions: cited from earlier work
[3] = test system: oats; assay: Effect on development of sprouts, agar medium in Petri dishes; type: in vivo; design: Germination capacity, oats: unit not given here; conditions: for Plant parts length, oats leaf / Plant parts length, oats root: 7 days
Protocol: as §1, §2, §3

[4] = Acute toxicity test; type: in vivo; conditions: rat, in vivo, rats
Protocol: (§4) Bis-(N,N-dimethyl-N-carbodecyloxymethyl-N-ethyleneammonium)-sulphide dichloride was tested for toxicity in an acute test on rats of both sexes with an average mass of 200 to 250 g and on white mice of both sexes with an average mass of 22 to 25 g with enteral and intraperitoneal administrations. Aqueous solutions of the above preparation (from 10 to 5000 mg per kg of animal weight) were used for enteral and intraperitoneal administration. Each dosage was tried on five animals. Animal death rate was registered 24 hours after the administration of the above solutions.

[5] = test system: Rats; assay: Acute toxicity test; type: in vivo; conditions: 24 hours
Protocol: as §4

[6] = test system: Mice; assay: Acute toxicity test; type: in vivo, white mice; conditions: for LD100: mice, 24 hours
Protocol: as §4

[7] = Acute toxicity test; type: in vivo, white mice; conditions: mouse, in vivo, mice, 24 hours
Protocol: as §4

[8] = test system: staphylococci, Escherichia coli, and intestinal group microorganisms; assay: Antimicrobial action, overall; type: cell-based; conditions: analysis of the test results
Protocol: (§5) Antimicrobial properties of said preparation were investigated by a classical method of series dilutions in standard liquid nutrient media.
(§6) The activity of the above preparation was tested by its action on staphylococci, Escherichia coli, and intestinal group microorganisms.

[9] = Solubility; type: physicochemical
[10] = Stability of aqueous solutions / retention of antimicrobial activity; type: physicochemical
Excerpt: Aqueous solutions of the preparation were stable.

[11] = test system: Proteus morgani; assay: Antimicrobial activity, series dilutions in liquid nutrient media; type: cell-based; conditions: 4 strains
Protocol: as §5, §6

[12] = test system: Salmonella sp.; assay: as above; type: cell-based; conditions: 7 strains
Protocol: as §5, §6

[13] = test system: Shigella sonnei; assay: as above; type: cell-based; conditions: 7 strains
Protocol: as §5, §6

[14] = test system: Proteus vulgaris; assay: as above; type: cell-based; conditions: 2 strains
Protocol: as §5, §6

[15] = test system: Staphylococcus aureus; assay: as above; type: cell-based; conditions: 20 strains
Protocol: as §5, §6

[16] = test system: Escherichia coli; assay: as above; type: cell-based; conditions: 10 strains
Protocol: as §5, §6

[17] = test system: Staphylococcus albus; assay: as above; type: cell-based; conditions: 20 strains
Protocol: as §5, §6

[18] = test system: calves; assay: Chronic toxicity test, intravenous; type: in vivo; conditions: 10 mg per kg daily for 30 days
Excerpt: Test group consisted of 10 calves, the other 10 calves to which the above preparation was not prescribed making up a control group. The calves of both groups were kept in the same conditions. General state and behaviour of the calves, rate of gain were controlled and peripheric blood counts (hemoglobin, erythrocytes, leucocytes, thrombocytes, differential blood count) were made daily during the test. To determine the functional state of liver, kidneys, and pancreas, certain biochemical characteristics of the urine (protein, sugar, and biliary pigments content) and blood (sugar, cholesterol, bilirubin, urea, alkaline phosphatase, and chlorides content) were studied.
At the end of the test period the test group animals were killed and their internal organs were studied by macro- and microscopic techniques.

[19] = test system: Rats; assay: Toxicity (LD50) compared with chlorocholine chloride; type: in vivo; conditions: versus chlorocholine chloride
[20] = Treatment of inflammatory diseases of the middle ear; type: in vivo, men; conditions: for Recovery with comparator solutions: in a great number of cases; for Irrigations of the tympanic cavity required, relative to the preparation: solutions, for the same purpose
Protocol: was tested in treating inflammatory diseases of the middle ear in men: acute otitis and antritis media purulenta, chronic purulent mesotympanitis, and chronic purulent epitympanitis.
The treatment was applied to 65 patients.
The treatment procedure consisted in thorough and copious irrigation (with the help of Hartmann's cannula or blunt-ended needle) of the middle ear, attic, and Eustachian tube for maximum removal of purulent exudate and cholesteatoma masses.

[21] = read-out: Average bactericidal concentration
[22] = read-out: Average bacteriostatic concentration

C[N+](C)(C)CCCl.[Cl-] [Chlorocholine chloride]
Germination capacity, lettuce ([1]; 0.0001 wt. %): 98 | Plant parts length, lettuce root ([1]; 0.0001 wt. %): 104 | Plant parts length, lettuce stalk ([1]; 0.0001 wt. %): 98 | Germination capacity, lettuce ([1]; 0.001 wt. %): 94 | Plant parts length, lettuce root ([1]; 0.001 wt. %): 102 | Plant parts length, lettuce stalk ([1]; 0.001 wt. %): 110 | Germination capacity, lettuce ([1]; 0.01 wt. %): 94 | Inhibition of root development ([1]; 0.01 wt. %): does not inhibit root development | Plant parts length, lettuce root ([1]; 0.01 wt. %): 101 | Plant parts length, lettuce stalk ([1]; 0.01 wt. %): 99 | LD50 [2]: 250 mg/kg | Germination capacity, oats ([3]; 0.0001 wt. %): 91 | Plant parts length, oats leaf ([3]; 0.0001 wt. %): 94 | Plant parts length, oats root ([3]; 0.0001 wt. %): 102 | Germination capacity, oats ([3]; 0.001 wt. %): 99 | Plant parts length, oats leaf ([3]; 0.001 wt. %): 97 | Plant parts length, oats root ([3]; 0.001 wt. %): 92 | Germination capacity, oats ([3]; 0.01 wt. %): 98 | Plant parts length, oats leaf ([3]; 0.01 wt. %): 96 | Plant parts length, oats root ([3]; 0.01 wt. %): 94

O=C(O)Cc1c[nH]c2ccccc12 [Heteroauxine]
Germination capacity, lettuce ([1]; 0.0001 wt. %): 81 | Plant parts length, lettuce root ([1]; 0.0001 wt. %): 88 | Plant parts length, lettuce stalk ([1]; 0.0001 wt. %): 92 | Germination capacity, lettuce ([1]; 0.001 wt. %): 55 | Plant parts length, lettuce root ([1]; 0.001 wt. %): 27 | Plant parts length, lettuce stalk ([1]; 0.001 wt. %): 24 | Germination capacity, lettuce ([1]; 0.01 wt. %): 0 | Plant parts length, lettuce root ([1]; 0.01 wt. %): 0 | Plant parts length, lettuce stalk ([1]; 0.01 wt. %): 0 | Germination capacity, oats ([3]; 0.0001 wt. %): 100 | Plant parts length, oats leaf ([3]; 0.0001 wt. %): 92 | Plant parts length, oats root ([3]; 0.0001 wt. %): 88 | Germination capacity, oats ([3]; 0.001 wt. %): 102 | Plant parts length, oats leaf ([3]; 0.001 wt. %): 67 | Plant parts length, oats root ([3]; 0.001 wt. %): 28 | Germination capacity, oats ([3]; 0.01 wt. %): 84 | Plant parts length, oats leaf ([3]; 0.01 wt. %): 35 | Plant parts length, oats root ([3]; 0.01 wt. %): 19

CCCCCCCCCCOC(=O)C[N+](C)(C)CCSCC[N+](C)(C)CC(=O)OCCCCCCCCCC [bis-(N,N-dimethyl-N-carbodecyloxymethyl-N-ethyleneammonium)-sulphide dichloride]
LD50 at 24 h ([4]; ip, intraperitoneal): 67.7 mg/kg | LD50 at 24 h ([4]; po, enteral): 2660 mg/kg | LD100 ([5]; enteral): 3500 mg/kg | LD100 ([5]; intraperitoneal): 80.0 mg/kg | Toxicity group, overall ([6]; analysis of the test results (mice, rats, calves)): low-toxic | LD100 ([6]; enteral): 2500 mg/kg | LD100 ([6]; intraperitoneal): 70.0 mg/kg | LD50 at 24 h ([7]; ip, intraperitoneal): 54.1 mg/kg | LD50 at 24 h ([7]; po, enteral): 1220 mg/kg | Antimicrobial action, overall [8]: strong antimicrobial action | Germination capacity, lettuce ([1]; 0.00001 wt. %): 86 | Plant parts length, lettuce root ([1]; 0.00001 wt. %): 91 | Plant parts length, lettuce stalk ([1]; 0.00001 wt. %): 91 | Germination capacity, lettuce ([1]; 0.0001 wt. %): 89 | Plant parts length, lettuce root ([1]; 0.0001 wt. %): 96 | Plant parts length, lettuce stalk ([1]; 0.0001 wt. %): 99 | Germination capacity, lettuce ([1]; 0.001 wt. %): 100 | Plant parts length, lettuce root ([1]; 0.001 wt. %): 88 | Plant parts length, lettuce stalk ([1]; 0.001 wt. %): 91 | Germination capacity, lettuce ([1]; 0.01 wt. %): 34 | Plant parts length, lettuce root ([1]; 0.01 wt. %): 15 | Plant parts length, lettuce stalk ([1]; 0.01 wt. %): 38 | Germination capacity, lettuce ([1]; 0.1 wt. %): 0 | Plant parts length, lettuce root ([1]; 0.1 wt. %): 2 | Plant parts length, lettuce stalk ([1]; 0.1 wt. %): 0 | Herbicidal action ([1]; 0.1 wt.%, dicotyledonous plants): selective herbicide | Phytoncidal action ([1]; lettuce (dicotyledonous)): more phytoncidal | Solubility in diethyl ether ([9]; diethyl ether): insoluble | Solubility in lower alcohols ([9]; lower alcohols): soluble | Solubility in water ([9]; water): soluble | Activity after storage of solutions ([10]; 1% and 0.1% solutions, 6 months): did not lose its activity | Stability of aqueous solutions ([10]; aqueous solutions): stable | Antimicrobial activity as a function of pH ([10]; pH 5 to 8): remains unchanged | Antimicrobial activity after autoclaving ([10]; single and double autoclaving, 60 minutes at 2.5 atm): did not alter the antimicrobial activity | MBC [11, 21]: 50.7 µg/mL | MIC [11, 22]: 50.7 µg/mL | MBC [12, 21]: 31.2 µg/mL | MIC [12, 22]: 31.2 µg/mL | MBC [13, 21]: 28.4 µg/mL | MIC [13, 22]: 5.85 µg/mL | MBC [14, 21]: 62.5 µg/mL | MIC [14, 22]: 62.5 µg/mL | MBC [15, 21]: 2.63 µg/mL | MIC [15, 22]: 0.76 µg/mL | MBC [16, 21]: 6.4 µg/mL | MIC [16, 22]: 3.9 µg/mL | MBC [17, 21]: 1.67 µg/mL | MIC [17, 22]: 0.6 µg/mL | Pathologic changes at autopsy, macro- and microscopic study [18]: no pathologic changes | Changes in the calves under chronic test conditions ([18]; 0.2 wt.% in sodium chloride solution): did not cause significant changes | Toxicity compared with chlorocholine chloride [19]: much lower | Germination capacity, oats ([3]; 0.00001 wt. %): 91 | Plant parts length, oats leaf ([3]; 0.00001 wt. %): 105 | Plant parts length, oats root ([3]; 0.00001 wt. %): 100 | Germination capacity, oats ([3]; 0.0001 wt. %): 87 | Plant parts length, oats leaf ([3]; 0.0001 wt. %): 99 | Plant parts length, oats root ([3]; 0.0001 wt. %): 86 | Germination capacity, oats ([3]; 0.001 wt. %): 87 | Plant parts length, oats leaf ([3]; 0.001 wt. %): 96 | Plant parts length, oats root ([3]; 0.001 wt. %): 88 | Germination capacity, oats ([3]; 0.01 wt. %): 86 | Plant parts length, oats leaf ([3]; 0.01 wt. %): 93 | Plant parts length, oats root ([3]; 0.01 wt. %): 54 | Germination capacity, oats ([3]; 0.1 wt. %): 87 | Plant parts length, oats leaf ([3]; 0.1 wt. %): 55 | Plant parts length, oats root ([3]; 0.1 wt. %): 6 | Inhibition of growth of roots versus leaves ([3]; oats (monocotyledonous)): more strongly inhibits the growth of roots than that of leaves

CC1(C)S[C@@H]2[C@H](NC(=O)Cc3ccccc3)C(=O)N2[C@H]1C(=O)O [penicillin]
Recovery with comparator solutions [20]: did not result in recovery | Irrigations of the tympanic cavity required, relative to the preparation [20]: twice as many or even more

[H]/N=C(/N)N[C@H]1[C@H](O)[C@@H](O)[C@H](O[C@@H]2O[C@@H](C)[C@](O)(C=O)[C@H]2O[C@@H]2O[C@@H](CO)[C@H](O)[C@@H](O)[C@@H]2NC)[C@@H](N/C(N)=N\[H])[C@@H]1O [streptomycin]
Recovery with comparator solutions [20]: did not result in recovery | Irrigations of the tympanic cavity required, relative to the preparation [20]: twice as many or even more
